Measured values taken from PubChem BioAssay (NCI).
“And” between values parts separate entries of the source, which are not always exact repeats. Equal entries are not always repeated.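 Method: 48-hour compound exposure of cells in 96-well plates, five concentrations, linear interpolation of endpoints. GI50 = concentration required for 50% inhibition of growth. At the TGI there is no net growth.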

Experiments:
Experiment in all cases: DTP human tumour cell line panel, 48 h
SK-MEL-5 melanoma = test system: SK-MEL-5 melanoma
SF-268 CNS = test system: SF-268 CNS
SNB-75 CNS = test system: SNB-75 CNS
KM20L2 colon = test system: KM20L2 colon
OVCAR-3 ovarian = test system: OVCAR-3 ovarian
T-47D breast = test system: T-47D breast
OVCAR-4 ovarian = test system: OVCAR-4 ovarian
M19-MEL melanoma = test system: M19-MEL melanoma
NCI-H460 lung = test system: NCI-H460 lung
SR leukemia = test system: SR leukemia

Row | SMILES | TGI (SK-MEL-5 melanoma) | TGI (SF-268 CNS) | TGI (SNB-75 CNS) | TGI (KM20L2 colon) | TGI (OVCAR-3 ovarian) | TGI (T-47D breast) | TGI (OVCAR-4 ovarian) | TGI (M19-MEL melanoma) | TGI (NCI-H460 lung) | TGI (SR leukemia) | GI50 (SNB-75 CNS) | GI50 (OVCAR-4 ovarian) | GI50 (SR leukemia) | GI50 (T-47D breast)
1 | COC1C(O)CC(OC2CC(OC3CC(O[C@@H]4C(=O)c5c(cc6cc(OC7CC(OC8CC(O)C(O)C(C)O8)C(O)C(C)O7)c(C)c(O)c6c5O)C[C@H]4[C@H](OC)C(=O)[C@@H](O)[C@@H](C)O)OC(C)C3O)OC(C)C2O)OC1C (some centres undefined) | 0.032 µM | > 94 µM | 0.447 µM | 0.533 µM | 0.101 µM | 0.203 µM | > 100 µM | > 100 µM | 4.34 µM | 0.558 µM | – | – | – | –
2 | Cc1cc(Cl)ccc1N1C(=O)C(=O)C(c2nc3ccccc3o2)C(=O)C1=O | > 100 µM | > 100 µM | > 100 µM | > 100 µM | > 100 µM | – | > 100 µM | > 100 µM | > 100 µM | > 100 µM | – | – | – | –
3 | CC(=O)OCC1OC(n2c(=S)n(-c3ccccc3)c(=O)c3cc(Br)ccc32)C(OC(C)=O)C(OC(C)=O)C1OC(C)=O (centres undefined) | > 100 µM | > 100 µM | 99.2 µM and > 100 µM | > 100 µM | > 100 µM | – | > 100 µM | > 100 µM | > 100 µM | > 100 µM | 33.8 µM and > 100 µM | 10.6 µM and > 100 µM | > 100 µM and 12 µM | –
4 | O=C(Nc1ccccc1[N+](=O)[O-])C(=O)C(C(=O)c1ccccc1-c1ccccc1)C1OC(=O)c2ccccc21 (centres undefined) | 32.7 µM | 41 µM | 53.4 µM | 34.9 µM | 28 µM | – | > 100 µM | 27.5 µM | 30.7 µM | 49 µM | – | – | – | –
5 | CN(C)CCC(=O)N1CCc2c([nH]c3ccccc23)C1c1cccnc1 (centres undefined) | > 100 µM | > 100 µM | > 100 µM | > 100 µM | > 100 µM | – | > 100 µM | > 100 µM | > 100 µM | > 100 µM | – | – | – | –
6 | Cc1[nH]c(=O)nc(N/N=C/c2ccc(Cl)cc2)c1C(=O)Nc1ccc(Cl)cc1 | 48.4 µM | > 100 µM | 14.6 µM | > 100 µM | 35.6 µM | > 85.4 µM | 22.4 µM | > 100 µM | 39.7 µM | > 100 µM | – | – | – | –
7 | Cc1cccc2cc3cccc(C(=O)NCCN(C)C)c3nc12 | 0.825 µM | 3.84 µM | 0.825 µM | 5.11 µM | 5.38 µM | – | 2.32 µM | 0.847 µM | 0.312 µM | 0.118 µM | – | – | – | –
8 | O=C1c2ccccc2C(=O)c2sc(Nc3ccc(Cl)cc3)nc21 | 3.6 µM | 5.52 µM | 12.7 µM | 33.9 µM | 2.74 µM | 7.52 µM | 4.12 µM | 1.56 µM | 11.7 µM | 5.84 µM | – | – | – | 1.8 µM
